In ChEMBL document CHEMBL4417636, “Small molecule inhibitors of pendrin ion exchange and pharmaceutical compositions” (2017):
The source made the active and inactive calls. The rule behind the calls is not given here.

Legend:
[1] = target: T1, Pendrin (Mus musculus) (UniProt Q9R155); experiment: Inhibition of mouse pendrin expressed in FRT cells co-expressing YFP-HIF assessed as reduction in pendrin-mediated exchange of Cl(-) with I(-) by pH-sensitive fluorescent probe BCECF-AM based fluorescence assay relative to control; format: cell-based
T1 sequence (whole entry): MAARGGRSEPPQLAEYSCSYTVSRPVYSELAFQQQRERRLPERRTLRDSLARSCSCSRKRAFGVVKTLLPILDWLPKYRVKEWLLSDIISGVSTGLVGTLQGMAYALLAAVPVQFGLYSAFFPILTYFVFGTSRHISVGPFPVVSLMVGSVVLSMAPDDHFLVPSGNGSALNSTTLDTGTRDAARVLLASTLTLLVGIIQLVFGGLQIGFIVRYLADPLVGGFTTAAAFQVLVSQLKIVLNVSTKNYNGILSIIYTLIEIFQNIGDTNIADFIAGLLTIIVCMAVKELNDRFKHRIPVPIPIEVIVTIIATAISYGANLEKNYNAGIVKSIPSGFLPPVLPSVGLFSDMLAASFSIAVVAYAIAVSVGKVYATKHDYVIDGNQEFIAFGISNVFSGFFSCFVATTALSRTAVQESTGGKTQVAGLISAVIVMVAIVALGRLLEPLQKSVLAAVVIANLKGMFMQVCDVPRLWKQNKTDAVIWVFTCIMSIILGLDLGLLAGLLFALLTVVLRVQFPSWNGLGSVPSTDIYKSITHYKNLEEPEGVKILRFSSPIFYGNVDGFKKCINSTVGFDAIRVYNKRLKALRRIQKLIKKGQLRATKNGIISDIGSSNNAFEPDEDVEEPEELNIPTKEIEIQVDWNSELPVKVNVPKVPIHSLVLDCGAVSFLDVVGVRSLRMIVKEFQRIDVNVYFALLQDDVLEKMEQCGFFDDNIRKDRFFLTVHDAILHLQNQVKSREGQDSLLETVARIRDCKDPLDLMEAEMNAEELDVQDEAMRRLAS

[2] = tested on: Mus musculus; experiment: Potentiation of 20 mg/kg, ip furosemide-induced acute diuretic action in CD1 mouse assessed as effect on urinary K+ excretion at 50 mg/kg, ip measured at 3 hrs relative to control; format: functional, organism-based
[3] = target: T2, Pendrin (Homo sapiens, UniProt O43511); experiment: Inhibition of human pendrin expressed in FRT cells co-expressing EYFP-HIF assessed as reduction in pendrin-mediated Cl(-)/r exchange incubated for 10 mins by pH-sensitive fluorescent probe BCECF-AM based fluorescence assay relative to control; format: cell-based
T2 sequence (O43511 whole entry): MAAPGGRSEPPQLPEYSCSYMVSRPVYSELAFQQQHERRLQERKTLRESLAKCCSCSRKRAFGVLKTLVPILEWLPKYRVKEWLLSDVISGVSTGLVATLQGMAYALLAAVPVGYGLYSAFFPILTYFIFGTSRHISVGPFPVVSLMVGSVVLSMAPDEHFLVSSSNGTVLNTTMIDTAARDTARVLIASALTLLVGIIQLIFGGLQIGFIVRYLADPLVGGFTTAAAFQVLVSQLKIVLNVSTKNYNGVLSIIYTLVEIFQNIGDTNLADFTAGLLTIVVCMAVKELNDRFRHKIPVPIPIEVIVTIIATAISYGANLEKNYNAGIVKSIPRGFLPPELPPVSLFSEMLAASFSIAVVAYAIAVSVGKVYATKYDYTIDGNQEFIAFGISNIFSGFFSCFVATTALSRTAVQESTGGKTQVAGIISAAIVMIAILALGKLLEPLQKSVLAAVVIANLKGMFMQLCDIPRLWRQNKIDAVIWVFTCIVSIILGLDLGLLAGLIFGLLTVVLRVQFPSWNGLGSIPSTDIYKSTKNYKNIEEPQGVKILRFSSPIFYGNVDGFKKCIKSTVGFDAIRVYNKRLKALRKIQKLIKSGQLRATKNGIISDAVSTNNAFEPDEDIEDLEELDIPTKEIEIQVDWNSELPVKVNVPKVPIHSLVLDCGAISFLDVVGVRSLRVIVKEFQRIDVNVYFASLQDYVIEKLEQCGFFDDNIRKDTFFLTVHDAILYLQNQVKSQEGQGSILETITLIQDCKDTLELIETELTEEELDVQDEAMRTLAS

[4] = tested on: Mus musculus; experiment: Potentiation of 20 mg/kg, ip furosemide-induced acute diuretic action in CD1 mouse assessed as effect on urinary K+ excretion at 10 mg/kg, ip measured at 3 hrs relative to control; format: functional, organism-based
[5] = target: T1, Pendrin (Mus musculus); experiment: Inhibition of mouse pendrin expressed in FRT cells co-expressing YFP-HIF assessed as reduction in pendrin-mediated kinetics of CI7HCO3(-) exchange by pH-sensitive fluorescent probe BCECF-AM based fluorescence assay relative to control; format: cell-based
[6] = species: Homo sapiens; experiment: Effect on gluconate gradient-induced Cl/HC03- efflux in NHBE cells at 25 uM; format: functional, cell-based
[7] = tested on: Mus musculus; experiment: Potentiation of 20 mg/kg, ip bid for 8 days furosemide-induced chronic diuretic action in CD1 mouse assessed as increase in urine volume at 10 mg/kg, ip measured at 3 hrs relative to control; format: functional

Row | inhibition [1] | IC50 [3] [µM] | inhibition [5] | Structure (SMILES) | Activity [2] | Activity [4] | Activity [6] | Activity [7] [%]
1 | Dose-dependent effect | 8 | Dose-dependent effect | Cc1n[nH]c(-c2cc(S(=O)(=O)NC3CCCc4ccccc43)c(C)s2)c1C (configuration not stated) | inactive | inactive |  | 
2 |  |  |  | Cn1nc(COc2cccc(F)c2)c2c1CCN(C(=O)Nc1ccc(Cl)cc1)C2 |  |  | inactive | 60
